Assay results from patent US12171766B2, “Methods of treating patients suffering from brain injury and methods of increasing the value of the extended Glasgow Outcome Scale of patients suffering from brain injury” (VERINOS OPERATIONS GMBH, priority 2021, dated 2024).

Assay: NOSTRA phase III trial: exposure control (pharmacokinetics), samples after end of infusion and 12 hours after end of infusion
Assay type: in vivo, human
Conditions: TBI patients
Method: An exposure control was performed with samples collected after end of infusion and 12 hours after end of infusion. Due to the high sensibility of Ronopterin to oxidation, no utilizable values could be obtained for Ronopterin and, therefore, the first metabolite, 4-amino-dihydrobiopterin, was used as a surrogate. The mean absolute concentration for the first metabolite of Ronopterin was 1071 ng/mL at the end of the infusion and 476 ng/mL 12 hours later (56% elimination). The mean absolute value for the second Ronopterin metabolite was 52 ng/mL at the end of the infusion and 37 ng/mL 12 hours after end of infusion.

[1] = Ronopterin 17 mg/kg infused for 48 hours

C[C@H](O)[C@H](O)C1=Nc2c(N)nc(N)nc2NC1 [4-amino-dihydrobiopterin]
elimination within 12 hours after end of infusion: 56%
mean absolute concentration 12 hours after end of infusion [1]: 476 ng/mL
mean absolute concentration at the end of the infusion [1]: 1071 ng/mL
